Each structure is given as a SMILES string.

One may read the melting point as the temperature of the solid-liquid transition.

`C=C(C)c1cc(Br)c(Oc2nc(C)nc(N3CCOCC3)n2)c(OC)c1` [Example 5, 2-[2-bromo-6-methoxy-4-(1-methylethenyl)phenoxy]-4-methyl-6-(4-morpholinyl)-1,3,5-triazine]: the melting point lay in the range of 63 to 67 °C.
The value for `C=C(C)c1cc(Br)c(Oc2nc(C)nc(N3CCOCC3)n2)c(OC)c1` [Example 6, 2-[2-bromo-6-methoxy-4-(1-methylethenyl)phenoxy]-4-methyl-6-(4-morpholinyl)-1,3,5-triazine] was 131 to 133 °C.

The record behind these values is US6818648B2, “Aryloxy- and arylthiosubstituted pyrimidines and triazines and derivatives thereof” (Bristol-Myers Squibb Pharma, priority 1996, dated 2004).
